# Assay results as given in US20240190910A1, “HEMI-CITRATE SALTS OF GABA-A POSITIVE […] AND CRYSTALLINE FORM THEREOF” (priority 2021, published 2024).
# Where “and” joins values, the source holds several entries; their conditions need not be identical. Equal entries are not always repeated. Structures can show the parent of a compound that is named as a salt. Where two headings read alike, the source gives them in different places.
# Legend:
# Type in all cases: physicochemical
# [1] = True density by helium pycnometry
# Description: The equipment used was a Micromeritics AccuPyc II 1340, and the test parameters are set forth below. Testing was performed in duplicate (assuming target <2% variability achieved).
# The true density of the material was determined by Helium Pycnometry.
# The equipment used in this study was a Micromeritics AccuPyc II 1340, and the test parameters are the same as described in Example 10. The testing was performed in duplicate (assuming target <2% variability achieved).
# [2] = Compaction characterization by Heckel analysis (yield pressure, strain rate sensitivity, crushing strength); conditions: for Yield pressure Fast (300 mm/s) / Yield pressure Slow (0.1 mm/s): summary of runs (± spread); for Strain rate sensitivity: yield pressure at 300 mm/s compared to 0.1 mm/s
# Description: The aim of the Heckel test is to compress the material under controlled conditions to derive the yield pressure of the bulk material. A known weight of material is compressed within a 10 mm diameter die with flat faced punches moving at a set speed. The force on the punch is accurately measured at frequent intervals whilst the displacement of the punches is used to calculate the volume of the powder. The yield pressure is calculated at slow and fast punch speeds to assess the time-dependent component to deformation of the material.
# A known weight of pure drug is compacted to theoretical zero porosity using 10 mm diameter flat faced punches. The Compaction Simulator was used under the following conditions:
# During compression the location of the punch tips are accurately determined, and the force measured by load cells producing a record of the primary compression parameters. Temperature and humidity were monitored at intervals during the test.
# The data were analyzed by the Compaction Analysis software program to generate values for yield pressure (Py) using the Heckel equation:
# where • D=the relative density of the compact; • P=Pressure applied; and • K=Gradient of the line in the linear region; [Reference: R. W. Heckel. Trans. Metall. Soc. AIME 221 (1961)1001-1008].
# For some materials, the deformation characteristics change with rate of applied force. This can be estimated by calculating the Strain Rate Sensitivity. The yield pressure at high speed compression is compared to that at slow speed using the following equation: […]
# [3] = Dynamic vapor sorption (DVS) hygroscopicity
# Description: DVS was measured via a SMS (Surface Measurement System) DVS Intrinsic. Parameters for DVS data collection were as follows:
# A second endotherm (having an onset at 121.5° C.) associated with melting of the dehydrated phase (ΔH: 15.20 J/g) was followed by a rapid decomposition as temperature continued to increase (FIG. 3). Because of the low onset of dehydration, the DVS was measured at both room temperature and at 40° C. to predict the stability of the crystalline phase at 40° C. […] A 1.5% weight loss was observed between 95% and 20% RH, and a 2.9% weight loss was observed between 20% and 0% RH, for a total loss of […] across the entire cycle. […] After measuring the hygroscopicity by DVS, an XRPD pattern was collected for comparison to the original material and found to correspond well to the pattern of the room temperature sample post-DVS temperature cycle (FIG. 6).
# [4] = Tablet dissolution: percent release of Compound 1 from acidified tablet formulation
# Description: FIG. 13 is a graph showing percent release of Compound 1 over time for an acidified tablet formulation containing Compound 1 hemi-citrate salt Form I. Tablets were used initially or maintained at 40° C./75% RH for 2 weeks, 1 month, or 2 months.
# FIG. 14 is a graph showing percent release of Compound 1 over time for an acidified tablet formulation containing Compound 1 mono-citrate salt (Form A). Tablets were used initially or stored at 40° C./75% RH for 2 weeks, 1 month, or 2 months.
# [5] = Tablet chemical stability: C17 epimer generation on storage at 40° C./75% RH; conditions: tablet dosage form, sealed bottle, 1 or 2 months, compared with mono-citrate salt
# Description: FIG. 12 is a graph comparing the amount of the C17 epimer, a degradation product of Compound 1, over time for a tablet formulation containing Compound 1 hemi-citrate salt (Form I; left column in both “1 month” and “2 months”) or Compound 1 mono-citrate salt (Form A; right column in both “1 month” and “2 months”) in sealed bottles stored at 40° C./75% RH).
# [6] = Gelation experiments in aqueous media; conditions: for concentration at which rapidly gelled: 0.1 N HCl media; for gelation in water or pH 7.4 buffer: 0.5-10 mg/mL
# Description: To confirm these findings, controlled experiments were conducted where the free base, mono-citrate, and hemi-citrate salts of Compound 1 were dissolved in aqueous media at concentrations between 0.5 mg/mL and 10 mg/mL. The dissolution experiments were performed in either 0.1 N HCl, water, or pH 7.4 buffer as aqueous media.
# [7] = fast speed 300 mm/s, individual runs, 21.7° C./38.9% RH
# [8] = slow speed 0.1 mm/s, individual runs, 21.6° C./37.1% RH
smiles,measurement,setting,value
COC[C@@]1(O)CC[C@@]2(C)[C@@H](CC[C@@H]3[C@@H]2CC[C@]2(C)[C@@H](C(=O)Cn4ccnc4)CC[C@@H]32)C1 [Compound 1 hemi-citrate salt Form I],true density mean,[1],1.2621 g/mL
same,Compact observations,[2],Ok and Chipped and Capped
same,Ejection Force,[2],0.416 kN and 0.445 kN and 0.479 kN and 0.747 kN and 0.736 kN and 0.745 kN
same,Peak Force of Upper punch,[2],20.607 kN and 21.683 kN and 19.936 kN and 14.028 kN and 13.909 kN and 14.571 kN
same,Yield Pressure,[2],67.480 MPa and 73.595 MPa and 67.397 MPa and 83.127 MPa and 80.626 MPa and 89.401 MPa
same,Yield pressure Fast (300 mm/s),[2]; fast speed 300 mm/s,84.38 MPa (±4.52)
same,Yield pressure Slow (0.1 mm/s),[2]; slow speed 0.1 mm/s,69.49 MPa (±3.55)
same,Strain rate sensitivity,[2],21.4%
same,total loss (DVS),[3]; 40° C.,5.4%
same,water absorption from 20% to 80% RH (DVS),[3]; 40° C.,1.8%
same,water lost between 95% and 20% RH (DVS),[3]; 40° C.,2.2%
same,water lost from 20% to 0% RH (DVS),[3]; 40° C.,3.2%
same,hygroscopicity,[3]; DVS at room temperature and 40° C.,slightly hygroscopic
same,total loss across the entire cycle (DVS),[3]; room temperature,4.3%
same,water uptake between 20% and 80% RH (DVS),[3]; room temperature,1.2%
same,weight loss between 20% and 0% RH (DVS),[3]; room temperature,2.9%
same,weight loss between 95% and 20% RH (DVS),[3]; room temperature,1.5%
COC[C@@]1(O)CC[C@@]2(C)[C@@H](CC[C@@H]3[C@@H]2CC[C@]2(C)[C@@H](C(=O)Cn4ccnc4)CC[C@@H]32)C1 [Compound 1 hemi-citrate salt],susceptibility to dissolution slow-down of the tablet,[4]; compared with Compound 1 mono-citrate salt,less susceptible
same,release of Compound 1 from an acidified formulation over time,"[4]; initial and tablet stored in open dish at 40° C./75% RH for 2 weeks, 1 month, 2 months, compared with mono-citrate salt",greater
same,degradation product (C17-epimer) generated,[5],less degradation product
same,gelation in aqueous media,"[6]; 0.1 N HCl, water, or pH 7.4 buffer, concentrations up to 10 mg/mL",did not gel
COC[C@@]1(O)CC[C@@]2(C)[C@@H](CC[C@@H]3[C@@H]2CC[C@]2(C)[C@@H](C(=O)Cn4ccnc4)CC[C@@H]32)C1.O=C(O)CC(O)(CC(=O)O)C(=O)O [Compound 1 mono-citrate salt Form A],true density mean,[1],1.2666 g/mL
same,Compact observations,[2]; [7],Laminated
same,Compact strength,[2]; [7],9.75 Kiloponds and 12.38 Kiloponds and 5.09 Kiloponds
same,Ejection Force,[2]; [7],0.740 kN and 0.649 kN and 0.719 kN
same,Peak Force of Upper punch,[2]; [7],14.137 kN and 14.545 kN and 14.488 kN
same,Yield Pressure,[2]; [7],105.169 MPa and 111.204 MPa and 110.483 MPa
same,Compact observations,[2]; [8],Ok
same,Compact strength,[2]; [8],15.99 Kiloponds and 17.94 Kiloponds and 15.97 Kiloponds and 16.04 Kiloponds
same,Ejection Force,[2]; [8],0.603 kN and 0.426 kN and 0.518 kN and 0.462 kN
same,Peak Force of Upper punch,[2]; [8],18.227 kN and 22.470 kN and 20.499 kN and 22.020 kN
same,Yield Pressure,[2]; [8],70.114 MPa and 92.323 MPa and 85.677 MPa and 90.406 MPa
same,Yield pressure Fast (300 mm/s),[2]; fast speed 300 mm/s,108.95 MPa (±3.30)
same,Yield pressure Slow (0.1 mm/s),[2]; slow speed 0.1 mm/s,84.63 MPa (±10.07)
same,Strain rate sensitivity,[2],28.7%
COC[C@@]1(O)CC[C@@]2(C)[C@@H](CC[C@@H]3[C@@H]2CC[C@]2(C)[C@@H](C(=O)Cn4ccnc4)CC[C@@H]32)C1.O=C(O)CC(O)(CC(=O)O)C(=O)O [Compound 1 mono-citrate salt],concentration at which rapidly gelled,[6],5 mg/mL
same,gelation in water or pH 7.4 buffer,[6],did not gel
"COC[C@@]1(O)CC[C@@]2(C)[C@@H](CC[C@@H]3[C@@H]2CC[C@]2(C)[C@@H](C(=O)Cn4ccnc4)CC[C@@H]32)C1 [Compound 1, 3α-hydroxy-3β-methoxymethyl-21-(1′-imidazolyl)-5α-pregnan-20-one]",concentration at which rapidly gelled,[6],1 mg/mL
same,gelation in water or pH 7.4 buffer,[6],did not gel
